In paper PMC2812670 (Experimental neurology, 2009):

Biological target: T1, MAO-A (Mus musculus, UniProt Q64133)
T1 sequence (Q64133 1-526): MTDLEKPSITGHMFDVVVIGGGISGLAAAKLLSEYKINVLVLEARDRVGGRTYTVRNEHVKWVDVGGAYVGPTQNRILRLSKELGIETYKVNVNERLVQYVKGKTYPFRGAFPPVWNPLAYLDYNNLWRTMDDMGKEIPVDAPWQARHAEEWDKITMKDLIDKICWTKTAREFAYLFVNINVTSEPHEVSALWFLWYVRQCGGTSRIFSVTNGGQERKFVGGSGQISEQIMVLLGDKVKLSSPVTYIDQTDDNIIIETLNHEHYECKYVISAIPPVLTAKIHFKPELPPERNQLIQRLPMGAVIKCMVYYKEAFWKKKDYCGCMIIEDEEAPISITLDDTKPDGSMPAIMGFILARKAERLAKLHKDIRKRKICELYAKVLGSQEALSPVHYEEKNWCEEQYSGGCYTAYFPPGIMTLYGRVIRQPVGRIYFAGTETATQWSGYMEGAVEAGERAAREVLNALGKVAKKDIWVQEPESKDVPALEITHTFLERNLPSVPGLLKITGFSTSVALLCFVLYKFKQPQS
Test: Amplex Red MAO-A activity assay
Type: biochemical

SMILES: C#CCN(C)CCCOc1ccc(Cl)cc1Cl [clorgyline]
- Amplex Red MAO-A activity assay (tyramine substrate) in mouse brain homogenates,: 1 µM
